Source: patent US20100298141A1, “SUBSTITUTED PYRIDINE N-OXIDE HERBICIDES” (E. I. DU PONT DE NEMOURS AND COMPANY, priority 2007, published 2010)

Experiments:
wheat [1] = test: Test C pre-/postemergence test; format: in vivo, Triticum aestivum
In short: (§1)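 Seeds were planted and treated preemergence with test chemical in a non-phytotoxic solvent mixture containing surfactant. Postemergence applications of the same formulation went onto plants 2 to 18 cm tall (1- to 4-leaf stage). A dash marks no test result.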

kochia = test: Test C pre-/postemergence test; format: in vivo, Kochia scoparia
In short: as §1

lambsquarters = test: Test C pre-/postemergence test; format: in vivo, Chenopodium album
In short: as §1

wild oat = test: Test C pre-/postemergence test; format: in vivo, Avena fatua
In short: as §1

blackgrass = test: Test C pre-/postemergence test; format: in vivo, Alopecurus myosuroides
In short: as §1

[2] = test system: common (oilseed) sunflower; test: Test C pre-/postemergence test; format: in vivo, Helianthus annuus
In short: as §1

morningglory = test: Test A pre-/postemergence greenhouse test; format: in vivo, Ipomoea spp.; settings: for Morningglory plant response rating: 0 to 100 scale; for Plant response rating, Morningglory: 0 to 100 scale where 0 is no effect and 100 is complete control
In short: (§2)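 Test compounds in non-phytotoxic solvent with surfactant were applied as a preemergence soil spray to seeded loam/sand pots and, concurrently, postemergence to plants at 2–10 cm, one- to two-leaf stage. About ten days in greenhouse, then injury visually rated against untreated controls.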

common ragweed = test: Test C pre-/postemergence test; format: in vivo, Ambrosia elation
In short: as §1

giant foxtail [3] = test: Test A pre-/postemergence greenhouse test; format: in vivo, Setaria faberi; settings: for Foxtail, Giant plant response rating: 0 to 100 scale; for Plant response rating, Foxtail, Giant: 0 to 100 scale where 0 is no effect and 100 is complete control
In short: as §2

catchweed bedstraw = test: Test C pre-/postemergence test; format: in vivo, Galium aparine
Excerpt: Seeds of plant species selected from blackgrass (Alopecurus myosuroides), downy brome (Bromus tectorum), green foxtail (Setaria viridis), Italian ryegrass (Lolium multiflorum), wheat (Triticum aestivum), wild oat (Avena fatua), catchweed bedstraw (Galium aparine), Russian thistle (Salsola kali), […] (Cynodon dactylon), Surinam grass (Brachiaria decumbens), cocklebur (Xanthium strumarium), corn (Zea mays), crabgrass (Digitaria sanguinalis), woolly cupgrass (Eriochloa villosa), giant foxtail (Setaria faberii), Goosegrass (Eleusin indica), johnsongrass (Sorghum halepense), kochia (Kochia scoparia), lambsquarters (Chenopodium album), morningglory (Ipomoea coccinea), eastern black nightshade (Solanum ptycanthum), yellow nutsedge (Cyperus esculentus), pigweed (Amaranthus retroflexus), common ragweed (Ambrosia elation), soybean (Glycine max), common (oilseed) sunflower (Helianthus annuus), and velvetleaf (Abutilon theophrasti) were planted and treated preemergence with test chemicals formulated in a non-phytotoxic solvent mixture which included a surfactant. At the same time, plants selected from these crop and weed species and also winter barley (Hordeum vulgare), canarygrass (Phalaris minor), and chickweed (Stellaria media) were treated with postemergence applications of some of the test chemicals formulated in the same manner. Plants ranged in height from 2 to 18 cm (1- to 4-leaf stage) for postemergence treatments. […] At time of treatment, test pots were flooded to 3 cm above the soil surface, treated by application of test compounds directly to the paddy water, and then maintained at that water depth for the duration of the test. […] A dash (-) response means no test result.

redroot pigweed = test: Test A pre-/postemergence greenhouse test; format: in vivo, Amaranthus retroflexus; settings: for Pigweed plant response rating: 0 to 100 scale; for Plant response rating, Pigweed: 0 to 100 scale where 0 is no effect and 100 is complete control
In short: as §2

eastern black nightshade = test: Test C pre-/postemergence test; format: in vivo, Solanum ptycanthum
In short: as §1

downy brome = test: Test C pre-/postemergence test; format: in vivo, Bromus tectorum
In short: as §1

Surinam grass = test: Test C pre-/postemergence test; format: in vivo, Brachiaria decumbens
In short: as §1

giant foxtail [4] = test: Test C pre-/postemergence test; format: in vivo, Setaria faberii
In short: as §1

woolly cupgrass = test: Test C pre-/postemergence test; format: in vivo, Eriochloa villosa
In short: as §1

cocklebur = test: Test C pre-/postemergence test; format: in vivo, Xanthium strumarium
In short: as §1

wheat [5] = test: Test A pre-/postemergence greenhouse test; format: in vivo, Triticum aestivum; settings: for Wheat plant response rating: 0 to 100 scale; for Plant response rating, Wheat: 0 to 100 scale where 0 is no effect and 100 is complete control
In short: as §2

velvetleaf = test: Test C pre-/postemergence test; format: in vivo, Abutilon theophrasti
In short: as §1

[6] = 62 g ai/ha, preemergence, scale 0 (no effect) to 100 (complete control)
[7] = preemergence, 125 g ai/ha, scale 0 (no effect) to 100 (complete control)
[8] = 31 g ai/ha, Preemergence, scale 0 to 100
[9] = Postemergence, 125 g ai/ha, 0 is no effect, 100 is complete control
[10] = Postemergence, 500 g ai/ha, 0 is no effect, 100 is complete control
[11] = Preemergence, 125 g ai/ha, 0 no effect, 100 complete control
[12] = 62 g ai/ha, Preemergence, scale 0 to 100
[13] = 125 g ai/ha, preemergence, scale 0 (no effect) to 100 (complete control)
[14] = Preemergence, 31 g ai/ha, scale 0 to 100 (0 no effect, 100 complete control)
[15] = preemergence, 250 g ai/ha, scale 0 (no effect) to 100 (complete control)

SMILES: Cn1nc(C(F)(F)F)c(CS(=O)(=O)c2cccc[n+]2[O-])c1OC(F)F [Compound 4]
- Wheat plant response rating (wheat [1]; [6]): 20
- Plant response rating (0 to 100), Wheat (wheat [1]; Preemergence, 250 g ai/ha): 50
- Wheat plant response rating (wheat [1]; [7]): 20
- Kochia plant response rating (kochia; [8]): 0
- Kochia plant response rating (kochia; [6]): 100
- Plant response rating (0 to 100), Kochia (kochia; Preemergence, 250 g ai/ha): 100
- Kochia plant response rating (kochia; [7]): 100
- Lambsquarters plant response rating (lambsquarters; [8]): 0
- Lambsquarters plant response rating (lambsquarters; [6]): 50
- Plant response rating (0 to 100), Lambsquarters (lambsquarters; Preemergence, 250 g ai/ha): 100
- Lambsquarters plant response rating (lambsquarters; [7]): 80
- Oat, Wild plant response rating (wild oat; [8]): 10
- Oat, Wild plant response rating (wild oat; [6]): 50
- Plant response rating (0 to 100), Oat, Wild (wild oat; Preemergence, 250 g ai/ha): 70
- Oat, Wild plant response rating (wild oat; [7]): 65
- Blackgrass plant response rating (blackgrass; [8]): 70
- Blackgrass plant response rating (blackgrass; [6]): 80
- Plant response rating (0 to 100), Blackgrass (blackgrass; Preemergence, 250 g ai/ha): 100
- Blackgrass plant response rating (blackgrass; [7]): 95
- Sunflower plant response rating [2, 6]: 10
- Plant response rating (0 to 100), Sunflower ([2]; Preemergence, 250 g ai/ha): 80
- Sunflower plant response rating [2, 7]: 15
- Morningglory plant response rating (morningglory; [9]): 60
- Morningglory plant response rating (morningglory; [10]): 70
- Morningglory plant response rating (morningglory; [11]): 80
- Plant response rating, Morningglory (morningglory; Preemergence, 500 g ai/ha): 90
- Ragweed plant response rating (common ragweed; [8]): 70
- Ragweed plant response rating (common ragweed; [6]): 100
- Plant response rating (0 to 100), Ragweed (common ragweed; Preemergence, 250 g ai/ha): 100
- Ragweed plant response rating (common ragweed; [7]): 100
- Foxtail, Giant plant response rating (giant foxtail [3]; [9]): 80
- Foxtail, Giant plant response rating (giant foxtail [3]; [10]): 90
- Foxtail, Giant plant response rating (giant foxtail [3]; [11]): 100
- Plant response rating, Foxtail, Giant (giant foxtail [3]; Preemergence, 500 g ai/ha): 100
- Galium plant response rating (catchweed bedstraw; [8]): 70
- Galium plant response rating (catchweed bedstraw; [6]): 90
- Plant response rating (0 to 100), Galium (catchweed bedstraw; Preemergence, 250 g ai/ha): 100
- Galium plant response rating (catchweed bedstraw; [7]): 100
- Pigweed plant response rating (redroot pigweed; [9]): 70
- Pigweed plant response rating (redroot pigweed; [10]): 80
- Pigweed plant response rating (redroot pigweed; [11]): 100
- Plant response rating, Pigweed (redroot pigweed; Preemergence, 500 g ai/ha): 100
- Nightshade plant response rating (eastern black nightshade; [8]): 90
- Nightshade plant response rating (eastern black nightshade; [6]): 100
- Plant response rating (0 to 100), Nightshade (eastern black nightshade; Preemergence, 250 g ai/ha): 100
- Nightshade plant response rating (eastern black nightshade; [7]): 100
- Bromegrass, Downy plant response rating (downy brome; [8]): 0
- Bromegrass, Downy plant response rating (downy brome; [6]): 0
- Plant response rating (0 to 100), Bromegrass, Downy (downy brome; Preemergence, 250 g ai/ha): 70
- Bromegrass, Downy plant response rating (downy brome; [7]): 0
- Surinam Grass plant response rating (Surinam grass; [6]): 100
- Plant response rating (0 to 100), Surinam Grass (Surinam grass; Preemergence, 250 g ai/ha): 100
- Surinam Grass plant response rating (Surinam grass; [7]): 100
- Foxtail, Giant plant response rating (giant foxtail [4]; [8]): 90
- Foxtail, Giant plant response rating (giant foxtail [4]; [6]): 100
- Plant response rating (0 to 100), Foxtail, Giant (giant foxtail [4]; Preemergence, 250 g ai/ha): 100
- Foxtail, Giant plant response rating (giant foxtail [4]; [7]): 100
- Cupgrass, Woolly plant response rating (woolly cupgrass; [8]): 60
- Cupgrass, Woolly plant response rating (woolly cupgrass; [6]): 98
- Plant response rating (0 to 100), Cupgrass, Woolly (woolly cupgrass; Preemergence, 250 g ai/ha): 100
- Cupgrass, Woolly plant response rating (woolly cupgrass; [7]): 98
- Cocklebur plant response rating (cocklebur; [8]): 0
- Cocklebur plant response rating (cocklebur; [6]): 0
- Plant response rating (0 to 100), Cocklebur (cocklebur; Preemergence, 250 g ai/ha): 0
- Cocklebur plant response rating (cocklebur; [7]): 0
- Wheat plant response rating (wheat [5]; [9]): 60
- Wheat plant response rating (wheat [5]; [10]): 60
- Wheat plant response rating (wheat [5]; [11]): 50
- Plant response rating, Wheat (wheat [5]; Preemergence, 500 g ai/ha): 80

SMILES: Cn1nc(C(F)(F)F)c(CS(=O)(=O)c2cccc[n+]2[O-])c1OCC(F)F [Compound 81]
- Wheat plant response rating (wheat [1]; [12]): 5
- Wheat plant response rating (wheat [1]; [13]): 80
- Plant response rating, Wheat (wheat [1]; [14]): 0
- Wheat plant response rating (wheat [1]; [15]): 80
- Kochia plant response rating (kochia; [12]): 100
- Kochia plant response rating (kochia; [13]): 100
- Plant response rating, Kochia (kochia; [14]): 40
- Kochia plant response rating (kochia; [15]): 100
- Lambsquarters plant response rating (lambsquarters; [12]): 100
- Lambsquarters plant response rating (lambsquarters; [13]): 100
- Plant response rating, Lambsquarters (lambsquarters; [14]): 80
- Lambsquarters plant response rating (lambsquarters; [15]): 100
- Oat, Wild plant response rating (wild oat; [12]): 60
- Oat, Wild plant response rating (wild oat; [13]): 95
- Plant response rating, Oat, Wild (wild oat; [14]): 0
- Oat, Wild plant response rating (wild oat; [15]): 95
- Plant response rating, Blackgrass (blackgrass; [14]): 50
- Sunflower plant response rating [2, 12]: 0
- Sunflower plant response rating [2, 13]: 50
- Plant response rating, Sunflower [2, 14]: 0
- Sunflower plant response rating [2, 15]: 75
- Plant response rating, Morningglory (morningglory; Postemergence, 125 g ai/ha): 30
- Morningglory plant response rating (morningglory; [10]): 50
- Morningglory plant response rating (morningglory; [11]): 0
- Plant response rating, Morningglory (morningglory; Preemergence, 500 g ai/ha): 80
- Ragweed plant response rating (common ragweed; [12]): 80
- Ragweed plant response rating (common ragweed; [13]): 100
- Plant response rating, Ragweed (common ragweed; [14]): 0
- Ragweed plant response rating (common ragweed; [15]): 100
- Plant response rating, Foxtail, Giant (giant foxtail [3]; Postemergence, 125 g ai/ha): 80
- Foxtail, Giant plant response rating (giant foxtail [3]; [10]): 80
- Foxtail, Giant plant response rating (giant foxtail [3]; [11]): 90
- Plant response rating, Foxtail, Giant (giant foxtail [3]; Preemergence, 500 g ai/ha): 100
- Plant response rating, Pigweed (redroot pigweed; Postemergence, 125 g ai/ha): 40
- Pigweed plant response rating (redroot pigweed; [10]): 70
- Pigweed plant response rating (redroot pigweed; [11]): 90
- Plant response rating, Pigweed (redroot pigweed; Preemergence, 500 g ai/ha): 100
- Velvetleaf plant response rating (velvetleaf; [12]): 45
- Velvetleaf plant response rating (velvetleaf; [13]): 70
- Plant response rating, Velvetleaf (velvetleaf; [14]): 0
- Velvetleaf plant response rating (velvetleaf; [15]): 85
- Nightshade plant response rating (eastern black nightshade; [12]): 70
- Nightshade plant response rating (eastern black nightshade; [13]): 90
- Plant response rating, Nightshade (eastern black nightshade; [14]): 0
- Nightshade plant response rating (eastern black nightshade; [15]): 90
- Bromegrass, Downy plant response rating (downy brome; [12]): 40
- Bromegrass, Downy plant response rating (downy brome; [13]): 100
- Plant response rating, Bromegrass, Downy (downy brome; [14]): 40
- Bromegrass, Downy plant response rating (downy brome; [15]): 100
- Surinam Grass plant response rating (Surinam grass; [12]): 80
- Surinam Grass plant response rating (Surinam grass; [13]): 100
- Plant response rating, Surinam Grass (Surinam grass; [14]): 70
- Surinam Grass plant response rating (Surinam grass; [15]): 100
- Foxtail, Giant plant response rating (giant foxtail [4]; [12]): 98
- Foxtail, Giant plant response rating (giant foxtail [4]; [13]): 100
- Plant response rating, Foxtail, Giant (giant foxtail [4]; [14]): 80
- Foxtail, Giant plant response rating (giant foxtail [4]; [15]): 100
- Cupgrass, Woolly plant response rating (woolly cupgrass; [12]): 100
- Cupgrass, Woolly plant response rating (woolly cupgrass; [13]): 100
- Plant response rating, Cupgrass, Woolly (woolly cupgrass; [14]): 85
- Cupgrass, Woolly plant response rating (woolly cupgrass; [15]): 100
- Cocklebur plant response rating (cocklebur; [12]): 0
- Cocklebur plant response rating (cocklebur; [13]): 50
- Plant response rating, Cocklebur (cocklebur; [14]): 0
- Cocklebur plant response rating (cocklebur; [15]): 60
- Plant response rating, Wheat (wheat [5]; Postemergence, 125 g ai/ha): 20
- Wheat plant response rating (wheat [5]; [10]): 60
- Wheat plant response rating (wheat [5]; [11]): 10
- Plant response rating, Wheat (wheat [5]; Preemergence, 500 g ai/ha): 80
